Source: patent US20220226354A1, “GLP-1 SECRETION-PROMOTING COMPOSITION” (SUNTORY HOLDINGS LIMITED, priority 2019, published 2022)

Assays:
H716 = test: GLP-1 secretion amount of sweeteners, 24 hours (Experimental Example 1); type: cell-based, human; details: H716, 24 hours after addition of stock solution, PBS as negative control (no sample)
Protocol: RebA. RebB, RebM. RebN. RebD. RebC, MogV, and stevioside were examined for their GLP-1 secretion-promoting effects. Specifically, the amount of GLP-1 secretion was measured by the following procedures.
Each test substance B, C, D, E, F, G, I, or J was dissolved in PBS (Thermo Fisher Scientific Inc.) (Cat. No. 14190250) to obtain a stock solution. The concentration of the stock solution is shown below:
B (RebA); 5 mM, C (RebB); 1M, D (RebM); 2.5 mM, E (RebN); 1M, F (RebD); 2.5 mM, G (RebC); 2.5 mM, I (MogV); 1M, J(stevioside); 1M
H716 (ATCC) (Cat. No. ATCC®, CCL-251) was cultured in RPMI 1640 (10% FBS (Thermo Fisher Scientific Inc.) (Cat. No. 10439024), 1 mM Sodium Pyruvate) in an incubator at 37° C., 5% CO2.
The preculture was performed for 2 weeks, and the cells were sufficiently recovered, and then cell stocks were prepared.
Cells were seeded in 96-well plates at 2×10^5 cells/90 μL (high) per well (N=4). At this time, the content of FBS in the medium was lowered to 0.5% to suppress cell proliferation.
After 24 hours, the sample at the highest concentration (i.e., stock solution) was added by […] each.
After further 24 hours, quantitation of GLP-1 was performed. Specific procedures were followed the user guide of Human GLP-1 (7-36 amide) Immunoassay kit (Cat. No. AL359) (Lot number 2361115) provided by PerkinElmer, Inc. PBS was used as a negative control (no sample).

[1] = Dissolution of sample during sample preparation (Experimental Example 2); type: physicochemical; details: final concentration of 1.5 mM (#24), 1% DMSO-containing PBS
Protocol: To 20 mg of RebC, 21 μL of DMSO (manufactured by FUJIFILM Wako Pure Chemical Corporation, model number: 037-24053) was added. The mixture was then stirred by vortex and allowed to stand for several hours to obtain a stock solution having a RebC concentration of 1,000 mM. The obtained stock solution and PBS were used to prepare a 10 mM solution.
The 10 mM solution was diluted as needed with 1% DMSO-containing PBS to obtain Sample G-1 mM to Sample G-10 mM. The concentrations of RebC are described in Table 1.

Compound | amount of GLP-1 secretion compared with no sample (H716) | dissolution of sample [1]
rebaudioside B [RebB] | significantly larger amounts of GLP-1 secretion than no sample | 
C[C@H](CC[C@@H](O[C@@H]1O[C@H](CO[C@@H]2O[C@H](CO)[C@@H](O)[C@H](O)[C@H]2O)[C@@H](O)[C@H](O)[C@H]1O[C@@H]1O[C@H](CO)[C@@H](O)[C@H](O)[C@H]1O)C(C)(C)O)[C@H]1CC[C@@]2(C)[C@@H]3CC=C4[C@@H](CC[C@H](O[C@@H]5O[C@H](CO[C@@H]6O[C@H](CO)[C@@H](O)[C@H](O)[C@H]6O)[C@@H](O)[C@H](O)[C@H]5O)C4(C)C)[C@]3(C)[C@H](O)C[C@]12C [MogV, mogroside V] | significantly larger amounts of GLP-1 secretion than no sample | 
C=C1C[C@@]23CC[C@H]4[C@@](C)(CCC[C@@]4(C)C(=O)O[C@@H]4O[C@H](CO)[C@@H](O)[C@H](O)[C@H]4O)[C@@H]2CC[C@]1(O[C@@H]1O[C@H](CO)[C@@H](O)[C@H](O)[C@H]1O[C@@H]1O[C@H](CO)[C@@H](O)[C@H](O)[C@H]1O)C3 [stevioside, Stevioside] | significantly larger amounts of GLP-1 secretion than no sample | 
C=C1C[C@@]23CC[C@H]4[C@@](C)(CCC[C@@]4(C)C(=O)O[C@@H]4O[C@H](CO)[C@@H](O)[C@H](O)[C@H]4O)[C@@H]2CC[C@]1(O[C@@H]1O[C@H](CO)[C@@H](O)[C@H](O[C@@H]2O[C@H](CO)[C@@H](O)[C@H](O)[C@H]2O)[C@H]1O[C@@H]1O[C@H](CO)[C@@H](O)[C@H](O)[C@H]1O)C3 [RebA, Rebaudioside A] | significantly larger amounts of GLP-1 secretion than no sample | 
rebaudioside C [RebC] | significantly larger amounts of GLP-1 secretion than no sample | not able to be dissolved
